Where “and” joins values, the source holds several entries; their conditions need not be identical. Equal values may be shown once. Toxic doses and inconclusive results are not listed.
Tested on: P388 leukemia ip, CD2F1 mice, survival T/C
Experiment: NCI In Vivo Anticancer Drug Screen. Data for tumor model P388 Leukemia (intraperitoneal) in CD2F1 (CDF1) mice
Conditions: endpoint: median survival time, higher = longer survival
How it was run: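 Mice carrying the transplanted tumor received test compound or vehicle. Survival was recorded in each group, and the value is the treated-group measurement divided by that of the vehicle-treated control group.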

[1] = dose: 50.0 mg/kg/injection, schedule: Q01DX005 (ip), vehicle: saline with Tween-80
[2] = dose: 100.0 mg/kg/injection, schedule: Q01DX005 (ip), vehicle: saline with Tween-80
[3] = dose: 200.0 mg/kg/injection, schedule: Q01DX005 (ip), vehicle: saline with Tween-80
[4] = dose: 50.0 mg/kg/injection, schedule: Q01DX005 (ip), vehicle: Klucel (hydroxypropylcellulose) (HPC)
[5] = dose: 100.0 mg/kg/injection, schedule: Q01DX005 (ip), vehicle: Klucel (hydroxypropylcellulose) (HPC)
[6] = dose: 60.0 mg/kg/injection, schedule: Q01DX005 (ip), vehicle: saline with Tween-80
[7] = dose: 100.0 mg/kg/injection, schedule: Q04DX003 (ip), vehicle: saline with Tween-80
[8] = dose: 60.0 mg/kg/injection, schedule: Q01DX005 (ip), vehicle: saline
[9] = dose: 120.0 mg/kg/injection, schedule: Q01DX005 (ip), vehicle: saline
[10] = dose: 240.0 mg/kg/injection, schedule: Q01DX005 (ip), vehicle: saline

SMILES: Cc1cc2c(cc1N)C(C)C1(CCC(=O)N2Cc2ccccc2)OCCO1 (configuration not stated)
- T/C [1]: 96 % of control
- T/C [2]: 99 % of control
- T/C [3]: 93 % of control

SMILES: COc1ccc(N2C(=O)CCC2=O)cc1
- T/C (dose: 100.0 mg/kg/injection, schedule: Q01DX001 (ip), vehicle: saline with Tween-80): 109 % of control
- T/C (dose: 200.0 mg/kg/injection, schedule: Q01DX001 (ip), vehicle: saline with Tween-80): 100 % of control
- T/C (dose: 400.0 mg/kg/injection, schedule: Q01DX001 (ip), vehicle: saline with Tween-80): 95 % of control

SMILES: c1cc2c3c(c1)c1cc4c(cc1c[n+]3CC2)OCO4
- T/C (dose: 25.0 mg/kg/injection, schedule: Q01DX009 (ip), vehicle: other): 153 % of control
- T/C (dose: 25.0 mg/kg/injection, schedule: Q01DX009 (ip), vehicle: water): 91 % of control

SMILES: CC(Cc1ccccc1)NC(=O)c1cccnc1 (configuration not stated)
- T/C [4]: 98 % of control
- T/C [5]: 90 % of control
- T/C (dose: 200.0 mg/kg/injection, schedule: Q01DX005 (ip), vehicle: Klucel (hydroxypropylcellulose) (HPC)): 99 % of control

SMILES: C/C(=C\c1ccc([N+](=O)[O-])cc1)C(=O)NC(C)C
- T/C (dose: 50.0 mg/kg/injection, schedule: Q01DX005 (ip), vehicle: other): 102 % of control
- T/C (dose: 100.0 mg/kg/injection, schedule: Q01DX005 (ip), vehicle: other): 93 % of control
- T/C (dose: 200.0 mg/kg/injection, schedule: Q01DX005 (ip), vehicle: other): 105 % of control

SMILES: CC(=O)OC1COC2OC1C(OC(C)=O)C2OC(C)=O (configuration not stated)
- T/C [1]: 101 % of control
- T/C [2]: 104 % of control
- T/C [3]: 101 % of control

SMILES: c1ccc(-c2c3ccccc3c(-c3ccccc3)c3c(-c4ccccc4)c4ccccc4c(-c4ccccc4)c23)cc1
- T/C (dose: 15.0 mg/kg/injection, schedule: Q01DX005 (ip), vehicle: saline with Tween-80): 105 % of control
- T/C (dose: 30.0 mg/kg/injection, schedule: Q01DX005 (ip), vehicle: saline with Tween-80): 106 % of control
- T/C [6]: 91 % of control and 94 % of control

SMILES: CP1(C)=NP(C)(C)=NP(C)(C)=NP(C)(C)=N1.[Cl][Pt]([Cl])([Cl])[Cl]
- T/C (dose: 6.25 mg/kg/injection, schedule: Q04DX003 (ip), vehicle: saline with Tween-80): 106 % of control
- T/C (dose: 12.5 mg/kg/injection, schedule: Q04DX003 (ip), vehicle: saline with Tween-80): 106 % of control and 107 % of control
- T/C (dose: 25.0 mg/kg/injection, schedule: Q04DX003 (ip), vehicle: saline with Tween-80): 110 % of control
- T/C (dose: 50.0 mg/kg/injection, schedule: Q04DX003 (ip), vehicle: saline with Tween-80): 120 % of control and 122 % of control
- T/C [7]: 118 % of control

SMILES: C=CC[S+]1CCSC1C(=O)OCC (configuration not stated)
- T/C (dose: 100.0 mg/kg/injection, schedule: Q01DX001 (ip), vehicle: saline): 95 % of control
- T/C (dose: 200.0 mg/kg/injection, schedule: Q01DX001 (ip), vehicle: saline): 112 % of control
- T/C (dose: 400.0 mg/kg/injection, schedule: Q01DX001 (ip), vehicle: saline): 91 % of control

SMILES: O=NN(CCCl)C(=O)OCCCSSCCCOC(=O)N(CCCl)N=O
- T/C (dose: 50.0 mg/kg/injection, schedule: Q01DX009 (ip), vehicle: water): 120 % of control

SMILES: N#CC(C(=O)CCc1nc2ccccc2[nH]1)c1c(Cl)cccc1Cl (configuration not stated)
- T/C [6]: 109 % of control
- T/C (dose: 120.0 mg/kg/injection, schedule: Q01DX005 (ip), vehicle: saline with Tween-80): 101 % of control
- T/C (dose: 240.0 mg/kg/injection, schedule: Q01DX005 (ip), vehicle: saline with Tween-80): 102 % of control

SMILES: CC(C(O)c1ccc2cc(Br)c3ccccc3c2c1)N(C)C (configuration not stated)
- T/C [1]: 100 % of control
- T/C [2]: 91 % of control

SMILES: O=C1c2ccccc2C(=O)c2ncccc21
- T/C [7]: 100 % of control
- T/C (dose: 200.0 mg/kg/injection, schedule: Q04DX003 (ip), vehicle: saline with Tween-80): 99 % of control
- T/C (dose: 400.0 mg/kg/injection, schedule: Q04DX003 (ip), vehicle: saline with Tween-80): 100 % of control

SMILES: COc1cccc2c1C(=O)c1c(O)c3c(c(O)c1C2=O)CC(O)(C(C)=O)CC3OC1OC(C)C(O)C(N)C1O (configuration not stated)
- T/C (dose: 3.13 mg/kg/injection, schedule: Q04DX003 (ip), vehicle: water): 91 % of control
- T/C (dose: 6.25 mg/kg/injection, schedule: Q04DX003 (ip), vehicle: water): 110 % of control
- T/C (dose: 12.5 mg/kg/injection, schedule: Q04DX003 (ip), vehicle: water): 99 % of control
- T/C (dose: 25.0 mg/kg/injection, schedule: Q04DX003 (ip), vehicle: water): 100 % of control
- T/C (dose: 50.0 mg/kg/injection, schedule: Q04DX003 (ip), vehicle: water): 103 % of control

SMILES: C=CC(=NC(C)C)NC(C)C
- T/C (dose: 1.56 mg/kg/injection, schedule: Q01DX009 (ip), vehicle: saline): 100 % of control
- T/C (dose: 3.13 mg/kg/injection, schedule: Q01DX009 (ip), vehicle: saline): 101 % of control

SMILES: Cc1cccc(=O)n1CCC#N
- T/C (dose: 100.0 mg/kg/injection, schedule: Q01DX009 (ip), vehicle: saline): 95 % of control
- T/C (dose: 200.0 mg/kg/injection, schedule: Q01DX009 (ip), vehicle: saline): 100 % of control
- T/C (dose: 400.0 mg/kg/injection, schedule: Q01DX009 (ip), vehicle: saline): 100 % of control

SMILES: Cc1cc(C)[n+]2n1C(=O)C(c1ccccc1)=C2[O-]
- T/C (dose: 50.0 mg/kg/injection, schedule: Q01DX005 (ip), vehicle: Klucel + Tween-80): 101 % of control
- T/C (dose: 100.0 mg/kg/injection, schedule: Q01DX005 (ip), vehicle: Klucel + Tween-80): 102 % of control
- T/C (dose: 200.0 mg/kg/injection, schedule: Q01DX005 (ip), vehicle: Klucel + Tween-80): 101 % of control

SMILES: O=C1CCC(=O)N1CN1CCCCC1
- T/C [8]: 93 % of control
- T/C [9]: 113 % of control
- T/C [10]: 118 % of control

SMILES: CC(=O)Nc1ccsc1S(=O)(=O)c1sccc1NC(C)=O
- T/C (dose: 100.0 mg/kg/injection, schedule: Q04DX002 (ip), vehicle: saline with Tween-80): 100 % of control
- T/C (dose: 200.0 mg/kg/injection, schedule: Q04DX002 (ip), vehicle: saline with Tween-80): 99 % of control
- T/C (dose: 400.0 mg/kg/injection, schedule: Q04DX002 (ip), vehicle: saline with Tween-80): 98 % of control

SMILES: NC(=O)C(CC(C(=O)O)c1ccccc1)c1ccccc1 (configuration not stated)
- T/C (dose: 100.0 mg/kg/injection, schedule: Q01DX001 (ip), vehicle: Klucel (hydroxypropylcellulose) (HPC)): 99 % of control
- T/C (dose: 200.0 mg/kg/injection, schedule: Q01DX001 (ip), vehicle: Klucel (hydroxypropylcellulose) (HPC)): 96 % of control
- T/C (dose: 400.0 mg/kg/injection, schedule: Q01DX001 (ip), vehicle: Klucel (hydroxypropylcellulose) (HPC)): 97 % of control

SMILES: O=C1c2ccccc2C(=O)N1CCc1ccccc1Br
- T/C [4]: 104 % of control
- T/C [5]: 96 % of control

SMILES: Nc1nc(Cl)cc(=O)[nH]1
- T/C (dose: 50.0 mg/kg/injection, schedule: Q04DX003 (ip), vehicle: Klucel (hydroxypropylcellulose) (HPC)): 94 % of control
- T/C (dose: 100.0 mg/kg/injection, schedule: Q04DX003 (ip), vehicle: Klucel (hydroxypropylcellulose) (HPC)): 102 % of control
- T/C (dose: 200.0 mg/kg/injection, schedule: Q04DX003 (ip), vehicle: Klucel (hydroxypropylcellulose) (HPC)): 94 % of control
- T/C (dose: 400.0 mg/kg/injection, schedule: Q04DX003 (ip), vehicle: Klucel (hydroxypropylcellulose) (HPC)): 94 % of control

SMILES: CCOc1cc(/C=N\Nc2nnc(C)n2N)c(C)cc1N(CCCl)CCCl
- T/C (dose: 0.22 mg/kg/injection, schedule: Q01DX009 (ip), vehicle: saline with Tween-80): 110 % of control
- T/C (dose: 0.33 mg/kg/injection, schedule: Q01DX009 (ip), vehicle: saline with Tween-80): 105 % of control
- T/C (dose: 0.5 mg/kg/injection, schedule: Q01DX009 (ip), vehicle: saline with Tween-80): 110 % of control
- T/C (dose: 0.75 mg/kg/injection, schedule: Q01DX009 (ip), vehicle: saline with Tween-80): 120 % of control
- T/C (dose: 1.25 mg/kg/injection, schedule: Q04DX003 (ip), vehicle: saline): 100 % of control
- T/C (dose: 2.0 mg/kg/injection, schedule: Q01DX009 (ip), vehicle: saline with Tween-80): 160 % of control
- T/C (dose: 2.5 mg/kg/injection, schedule: Q04DX003 (ip), vehicle: saline): 100 % of control
- T/C (dose: 4.0 mg/kg/injection, schedule: Q01DX009 (ip), vehicle: saline with Tween-80): 185 % of control
- T/C (dose: 5.0 mg/kg/injection, schedule: Q04DX003 (ip), vehicle: saline): 103 % of control

SMILES: Nc1c(S(=O)(=O)O)cc(Nc2ccc(S(=O)(=O)O)c(Nc3nc(Cl)nc(Cl)n3)c2)c2c1C(=O)c1ccccc1C2=O
- T/C [8]: 118 % of control
- T/C [9]: 110 % of control
- T/C [10]: 110 % of control
